The text below walks through data of patent US11274280B2, “Generation of functional beta cells from human pluripotent stem cell-derived endocrine progenitors” (Novo Nordisk A/S, priority 2016, dated 2022).

This assay concerns hPSC-derived beta cells. As to the kind of experiment: Perfusion assay of dynamic human insulin secretion in vitro. To be noted: human insulin ELISA. Type of assay: cell-based. The method, then: Mature beta cells are functionally defined by their rapid response to elevated glucose. Secretion of human insulin by beta cells at the end of BC step 2 was measured as repeated responses to 20 mM glucose±1 μM exendin-4 or ±the anti-diabetic sulfonylurea compound Tolbutamide within a perfusion system.
Briefly, groups of 300 hand-picked, clusters of hESC- or hiPSC-derived cell clusters were suspended with beads (Bio-Rad #150-4124) in plastic chambers of Biorep PERFUSION SYSTEM (Biorep #PERI-4.2). Under temperature- and CO2-controlled conditions, the cells were perfused at 0.5 ml min-1 with a Krebs buffer. Prior to sample collection, cells were equilibrated under basal (2 mM glucose) conditions for 1 h. During perfusion cells were exposed to repeated challenges with 20 mM glucose±1 μM exendin-4 or ±100 μM Tolbutamide. At the end of perfusion, cells were exposed to cAMP-elevating agents on top of 20 mM glucose. Insulin secretion was measured by human insulin ELISA (Mercodia).
A general note: An ELISA detects its analyte on a solid surface through an enzyme-linked reagent.

Consider `CCCCNC(=O)NS(=O)(=O)c1ccc(C)cc1` [tolbutamide, Tolbutamide], for which, under “100 μM Tolbutamide with 20 mM glucose, day 7 of BC step 2”, the “effect on insulin secretion” value was “significant additive effect”.

Regarding exendin-4, the “level of insulin secretion” value (1 μM exendin-4 with 20 mM glucose, day 3 and day 7 of BC step 2) is reported as “increased the level of insulin secretion”.
